Reference: ChEMBL document CHEMBL5230098, “The ups and downs of Poly(ADP-ribose) Polymerase-1 inhibitors in cancer therapy-Current progress and future direction” (Eur J Med Chem, 2020)

Legend:
[1] = molecular target: Poly [ADP-ribose] polymerase 1 (Homo sapiens, UniProt P09874); assay: Inhibition of PARP1 (unknown origin)
[2] = Oral bioavailability in Sprague-Dawley rat at 4 mg/kg administered as single dose measured for 24 hrs by HPLC/tandem mass spectrometry; type: ADME, organism-based; settings: in vivo
[3] = Aqueous solubility of compound; type: physicochemical

Poly [ADP-ribose] polymerase 1, sequence (P09874 whole entry): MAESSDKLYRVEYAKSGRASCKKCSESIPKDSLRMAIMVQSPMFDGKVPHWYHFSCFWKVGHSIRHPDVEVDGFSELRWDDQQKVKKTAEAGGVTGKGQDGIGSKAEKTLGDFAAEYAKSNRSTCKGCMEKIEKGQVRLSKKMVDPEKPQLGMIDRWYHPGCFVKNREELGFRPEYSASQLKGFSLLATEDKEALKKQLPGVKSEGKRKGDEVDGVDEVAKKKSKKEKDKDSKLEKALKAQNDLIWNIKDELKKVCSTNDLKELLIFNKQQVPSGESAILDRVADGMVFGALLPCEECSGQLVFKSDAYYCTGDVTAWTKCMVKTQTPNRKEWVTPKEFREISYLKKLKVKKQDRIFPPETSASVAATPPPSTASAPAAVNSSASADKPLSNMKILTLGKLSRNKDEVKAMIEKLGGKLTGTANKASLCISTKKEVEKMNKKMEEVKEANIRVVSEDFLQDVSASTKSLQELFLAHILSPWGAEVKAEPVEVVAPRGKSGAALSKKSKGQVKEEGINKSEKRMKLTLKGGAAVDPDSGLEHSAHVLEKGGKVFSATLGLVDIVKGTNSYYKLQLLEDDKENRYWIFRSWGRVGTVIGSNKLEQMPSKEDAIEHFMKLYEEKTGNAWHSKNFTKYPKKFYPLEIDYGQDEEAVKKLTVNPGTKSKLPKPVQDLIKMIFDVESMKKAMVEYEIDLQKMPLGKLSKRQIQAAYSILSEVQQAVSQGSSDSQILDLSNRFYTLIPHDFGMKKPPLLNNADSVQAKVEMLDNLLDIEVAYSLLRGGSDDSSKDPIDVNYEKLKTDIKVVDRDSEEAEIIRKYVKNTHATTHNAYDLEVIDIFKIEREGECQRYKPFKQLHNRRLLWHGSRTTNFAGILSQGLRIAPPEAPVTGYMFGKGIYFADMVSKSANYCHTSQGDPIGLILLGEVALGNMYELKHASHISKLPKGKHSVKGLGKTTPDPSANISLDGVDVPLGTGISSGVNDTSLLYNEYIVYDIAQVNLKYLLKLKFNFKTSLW

Row | SMILES | IC50 [1] [nM] | further results
1 | Cc1cccc2c1CCNC2=O | 150 | 
2 | O=C1CCC(=O)N1c1cc(Cc2n[nH]c(=O)c3ccccc23)ccc1F |  | Ki [1]: 12 nM
3 | O=C(c1cc(Cc2n[nH]c(=O)c3ccccc23)ccc1F)N1CCn2nc(C(F)(F)F)nc2C1 [FLUZOPARIB] |  | bioavailability [2]: 35.8%
4 | COc1cccc(C(N)=O)c1 | 30000 | 
5 | CNCc1ccc(-c2cc3cc(F)cc(C(N)=O)c3o2)cc1.Cl |  | solubility [3]: > 35 mg/mL
6 | O=C1NCCc2c(OCCCCN3CCCCC3)cccc21 | 150 | 
